Experiments:
[1] = system: three-dimensional cultured skin model (MEL-300-A) composed of normal human epidermal melanocytes and epidermal keratinocytes; experiment: Cell survival rate (Alamar Blue) in three-dimensional cultured skin model; assay type: cell-based
Procedure: (§1) A three-dimensional cultured skin model (MEL-300-A, manufactured by MatTek Corporation) composed of normal human epidermal melanocytes and epidermal keratinocytes was cultured, using the attached medium to which factors inducing melanin production were added. 25 µL of a pentaerythritol solution (1 or 5 mmol/L) was added onto the keratinous layer of the skin model. The skin model was cultured for 11 days exchanging the medium and the test substance solution every 2 to 3 days, and then the skin model was washed, and the cell survival rate was measured using Alamar Blue (manufactured by Invitrogen). In addition, the skin model was dissolved under heating in SOLVABLE (manufactured by Perkin Elmar), and the absorbance (405 nm) was measured and the amount of melanin was calculated relative to a standard determined by similarly dissolving melanin (manufactured by SIGMA) in SOLVABLE. The amount of melanin was determined relative to 100 (%) of the control (H2O addition).
(§2) The test method is similar to that of Example 6.

[2] = system: Normal human epidermal cells; experiment: Test-2 of PGE2 production suppression (UVB irradiation); assay type: cell-based; details: after 30 mJ/cm^2 UVB, culture supernatant after one day, control 670.1 ± 23.97
Procedure: Normal human epidermal cells were seeded on a 24 well plate by 2 × 10^5 each, and cultured for two days on a MCDB153 medium. The medium was replaced with HEPES Buffer, and was irradiated with 30 mJ/cm^2 UVB using a UVB lamp (TOREX FL20S and E-30/DMR 20W manufactured by TOSHIBA MEDICAL SUPPLY CO., LTD.). The intensity of ultraviolet rays was measured with a digital type ultraviolet intensity meter (manufactured by Ultraviolet). After the UVB irradiation, the medium was exchanged with a MCDB153 medium containing pentaerythritol (manufactured by JUNSEI CHEMICAL CO., LTD.), and further cultured for one day. As a control, purified water was added instead of pentaerythritol. After completion of the culture, the amount of PGE2 released in the culture supernatant was quantified using a PGE2 measurement kit (manufactured by Cayman Chemical Company). In addition, in the same manner as the control, a control group containing purified water and not irradiated with UVB was provided.

[3] = system: Normal human epidermal cells; experiment: Test-1 of PGE2 production suppression (arachidonic acid added); assay type: cell-based; details: culture supernatant after one day, control 1711.7 ± 25.91
Procedure: Normal human epidermal cells were seeded on a 24 well plate by 2 × 10^5 each, and cultured for 2 days on a MCDB153 medium. The medium was exchanged with a MCDB153 medium containing arachidonic acid (manufactured by Wako Pure Chemical Industries, Ltd.), which is a substrate of PGE2, and pentaerythritol (manufactured by JUNSEI CHEMICAL CO., LTD.) or the two acetal derivatives of pentaerythritol (the compounds of Examples 1 and 2), and the cells were further cultured for one day. As a control, purified water was added instead of pentaerythritol or the acetal derivative of pentaerythritol. After completion of the culture, the amount of PGE2 released in the cultured supernatant was quantified using a PGE2 measurement kit (manufactured by Cayman Chemical Company). In addition, in the same manner as the control, a control group to which purified water was added, but arachidonic acid was not added, was provided.

[4] = system: three-dimensional cultured skin model (MEL-300-A) composed of normal human epidermal melanocytes and epidermal keratinocytes; experiment: Test of melanin production suppression, using three-dimensional cultured skin model; assay type: cell-based; details: 25 µL on keratinous layer, 11 days culture, relative to 100 (%) of control (H2O)
Procedure: as §1, §2

[5] = as above; assay type: cell-based, human; details: Homo sapiens, 264 h; Addition concentration 5 mmol/L; method as Example 6; relative to control (H2O) 100; read-out: Melanin amount (%)
Procedure: as §1, §2

Structure (SMILES) | PGE2 amount (pg/mL) ± SD ([3]; sample concentration 0.5 µM) [pg/mL] | PGE2 amount (pg/mL) ± SD ([3]; sample concentration 5.0 µM) [pg/mL] | activity at 5000 µM [5] [%] | also measured
OCC(CO)(CO)CO [Pentaerythritol] | 789.2 ± 168.61 | 1151.3 ± 6.73 | – | cell toxicity ([1]; 1 or 5 mmol/L, any test addition concentration, 11 days culture): not detected; PGE2 amount (pg/mL) ± SD ([2]; sample concentration 0.05 µM): 565.5 ± 28.10 pg/mL; PGE2 amount (pg/mL) ± SD ([2]; sample concentration 0.5 µM): 522.8 ± 50.40 pg/mL; PGE2 amount (pg/mL) ± SD ([2]; sample concentration 5.0 µM): 512.3 ± 65.31 pg/mL; amount of melanin (%) ([4]; 1 mmol/L): 83.8%; amount of melanin (%) ([4]; 5 mmol/L): 76.7%
CC1(C)OCC2(CO1)COC(C)(C)OC2 [diisopropylidene pentaerythritol] | 746.0 ± 28.70 | 1142.0 ± 19.94 | – | –
OC[C@@H](O)[C@@H](O)[C@H](O)[C@H](O)CO [Mannitol, reference compound] | – | – | 96.3 | cell toxicity ([1]; 5 mmol/L, Example 7, method as Example 6): not detected
OC[C@@H](O)[C@@H](O)CO [Erythritol, reference compound] | – | – | 97 | –
CC1(C)OCC(CO)(CO)CO1 [monoisopropylidene pentaerythritol] | 824.7 ± 28.78 | 790.5 ± 11.64 | – | –

From EP3075378A1, “ANTI-INFLAMMATORY AGENT AND MELANIN PRODUCTION SUPPRESSANT” (Kao Corporation, priority 2013, dated 2015)
